From PubChem BioAssay AID1963868 (Molecular Pharmacology Branch, DTP, NCI, 2024)

System: KRAS PDC tumor spheroids (HUVEC+MSC), viability
Assay: Anticancer human tumor 254851-301-R-J1-PDC patient-derived colon carcinoma cell line growth inhibition [KRAS2]
Conditions: for IC50: curve of first compound; for viability, T/C: stronger effect = lower value
Excerpt: Multicellular complex tumor spheroid response to RAS pathway inhibitors in combination with a targeted agents in patient-derived cell lines with oncogenic KRAS variants from multiple cancer types
A high-throughput screen of multi-cell type tumor spheroids was designed to identify active combinations of targeted small molecules and KRAS pathway inhibitors. Complex spheroids include a stromal component modeled by human endothelial cells (HUVEC) and fibroblasts modeled by human mesenchymal stem cells (MSCs). The concentration ranges selected for each drug and investigational agent were based upon clinically achievable concentrations if the clinical Cmax of the agent was known.
Compounds. The drugs and investigational agents: BI-3406 (NSC825286), BAY-293 (NSC824723), batoprotafib (TNO155; NSC825523), sotorasib (AMG 510; NSC818433), MRTX1257 (NSC819558), elimusertib (BAY 1895344; NSC800525), molibresib (GSK525762; NSC774829), temuterkib (LY3214996; NSC803410), venetoclax (NSC766270), alisertib (NSC759677), olaparib (NSC753686), talazoparib (NSC767125), erdafitinib (NSC781556), ipatasertib (NSC767898), cabozantinib (NSC761068), nintedanib (NSC756659), abemaciclib (NSC768073), docetaxel (NSC628503), trametinib (NSC758246), and sapanisertib (NSC764658) were obtained from the National Cancer Institute (NCI) Developmental Therapeutics Program Chemical Repository. The FDA-approved anticancer drug set is available from the Developmental Therapeutics Program. […] The stock solutions were prepared in dimethyl sulfoxide (DMSO, Sigma-Aldrich, St. Louis, MO, cat. D2650) at 800-fold the tested concentration and stored at -70 degrees C prior to their use. All drugs and investigational agents were tested over a range starting from a high concentration at or near the clinical Cmax and decreasing in half-log increments. If the clinical Cmax for an agent had not been determined, the highest concentration tested was 10 microM.
Cell Culture. All cells were maintained in an incubator at 37 degrees C and 5% CO2 with 95% humidity. The PDC lines were cultured according to standard operating procedures established by the NCI PDMR (https://pdmr.cancer.gov/sops/default.htm). Briefly, all PDCs were thawed and cultured in Matrigel-coated flasks prepared with a working solution of 1X Ham's F-12 nutrient mix, without supplementation (Invitrogen, Waltham, MA, cat. 11765054), 100 U/mL penicillin-streptomycin (Invitrogen, cat. 15140122), and 2.5% Matrigel (Corning Inc., Corning, NY, cat. 354248) for the first three passages. All PDCs were cultured in complete DMEM/F-12 media containing advanced DMEM/F-12 (Invitrogen, cat. 12634028), 4.9% defined fetal bovine serum, heat inactivated (HyClone Laboratories Inc., Logan, UT, cat. SH30070.03HI), 389 ng/mL hydrocortisone (Sigma-Aldrich, cat. H4001), 9.7 ng/mL human EGF recombinant protein (Invitrogen, cat. PHG0313), 23.4 microg/mL adenine (Sigma-Aldrich, cat. A2786), 97.3 U/mL penicillin-streptomycin (Invitrogen, cat. 15140122), 1.9 mM L-glutamine (Invitrogen, cat. 25030081), and 9.7 microM Y-27632 dihydrochloride (Tocris Bioscience, Bristol, United Kingdom, cat. 1254). The PDCs were cultured in complete DMEM/F12 media without 9.7 microM Y-27632 dihydrochloride for at least two passages prior to the screen. The established cell line HOP-62 was cultured in RPMI 1640 medium, HEPES (Invitrogen, cat. 22400105) with 10% defined fetal bovine serum (HyClone Laboratories Inc., cat. SH30070.03) and 2 mM L-glutamine (Invitrogen, cat. 25030081). The pooled donor HUVEC were cultured in endothelial cell growth medium 2 (PromoCell, Heidelberg, Germany, cat. C-22011) and the hMSC were cultured in mesenchymal stem cell growth medium 2 (PromoCell, cat. C-28009). For all experiments, HUVEC and hMSC were used at passages </=5, while the malignant cell lines were used at passages </=15. […]

[1] = second compound 0.1 µM, first compound 0.0316 µM
[2] = second compound 0.1 µM, first compound 0.1 µM
[3] = second compound 0.1 µM, first compound 0.316 µM
[4] = second compound 0.1 µM, first compound 1 µM
[5] = second compound 0.1 µM, first compound 3.16 µM
[6] = second compound 0.1 µM, first compound 10 µM
[7] = second compound 0.316 µM, first compound 0.0316 µM
[8] = second compound 0.316 µM, first compound 0.1 µM
[9] = second compound 0.316 µM, first compound 0.316 µM
[10] = second compound 0.316 µM, first compound 1 µM
[11] = second compound 0.316 µM, first compound 3.16 µM
[12] = second compound 0.316 µM, first compound 10 µM
[13] = second compound 1 µM, first compound 0.0316 µM
[14] = second compound 1 µM, first compound 0.1 µM
[15] = second compound 1 µM, first compound 0.316 µM
[16] = second compound 1 µM, first compound 1 µM
[17] = second compound 1 µM, first compound 3.16 µM
[18] = second compound 1 µM, first compound 10 µM
[19] = second compound 3.16 µM, first compound 0.0316 µM
[20] = second compound 3.16 µM, first compound 0.1 µM
[21] = second compound 3.16 µM, first compound 0.316 µM
[22] = second compound 3.16 µM, first compound 1 µM
[23] = second compound 3.16 µM, first compound 3.16 µM
[24] = second compound 3.16 µM, first compound 10 µM
[25] = second compound 10 µM, first compound 0.0316 µM
[26] = second compound 10 µM, first compound 0.1 µM
[27] = second compound 10 µM, first compound 0.316 µM
[28] = second compound 10 µM, first compound 1 µM
[29] = second compound 10 µM, first compound 3.16 µM
[30] = second compound 10 µM, first compound 10 µM
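Also: spheroids exposed to compounds for seven days before readout.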
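For viability, T/C in this document: 100% = DMSO vehicle control luminescence of the spheroids.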

| Structure (SMILES) | IC50 (second compound 0.1 µM) | IC50 (second compound 0.316 µM) | IC50 (second compound 1 µM) | IC50 (second compound 3.16 µM) | viability, T/C [1] | viability, T/C [2] | viability, T/C [3] | viability, T/C [4] | viability, T/C [5] | viability, T/C [7] | viability, T/C [8] | viability, T/C [9] | viability, T/C [10] | viability, T/C [11] | viability, T/C [13] | viability, T/C [14] | viability, T/C [15] | viability, T/C [16] | viability, T/C [17] | viability, T/C [19] | also measured |
| --- | --- | --- | --- | --- | --- | --- | --- | --- | --- | --- | --- | --- | --- | --- | --- | --- | --- | --- | --- | --- | --- |
| COc1cc(Nc2ncc3c(n2)-c2ccc(Cl)cc2C(c2c(F)cccc2OC)=NC3)ccc1C(=O)O + C=CC(=O)N1CCN(c2nc(=O)n(-c3c(C)ccnc3C(C)C)c3nc(-c4c(O)cccc4F)c(F)cc23)C(C)C1 | 89.7 nM | 107 nM | 59.2 nM | 110 nM | 86% | 40% | 32.7% | 28.6% | 18.9% | 86.7% | 45.4% | 35% | 28.8% | 19.5% | 56.4% | 43.1% | 36.6% | 29.3% | 21.4% | 77.6% | IC50 (second compound 10 µM): 122 nM; viability, T/C [6]: 9.83%; viability, T/C [12]: 10.7%; viability, T/C [18]: 12.3%; viability, T/C [20]: 45%; viability, T/C [21]: 39.1%; viability, T/C [22]: 29.1%; viability, T/C [23]: 19.2%; viability, T/C [24]: 13.6%; viability, T/C [25]: 93.3%; viability, T/C [26]: 47.6%; viability, T/C [27]: 38.4%; viability, T/C [28]: 32.4%; viability, T/C [29]: 22.4%; viability, T/C [30]: 17.5% |
| CCNC(=O)CC1N=C(c2ccc(Cl)cc2)c2cc(OC)ccc2-n2c(C)nnc21 (stereo not given) + C=CC(=O)N1CCN(c2nc(OCC3CCCN3C)nc3c2CCN(c2cccc4cccc(C)c24)C3)CC1CC#N | > 10000 nM | > 10000 nM | 3640 nM | < 31.6 nM | 102% | 87.8% | 94.6% | 78.9% | 73.5% | 105% | 92.9% | 94.7% | 72.6% | 68% | 66.2% | 66.5% | 61.2% | 52.9% | 48.9% | 46.9% | IC50 (second compound 0.0316 µM): > 10000 nM; viability, T/C (second compound 0.0316 µM, first compound 0.0316 µM): 98.7%; viability, T/C (second compound 0.0316 µM, first compound 0.1 µM): 90.4%; viability, T/C (second compound 0.0316 µM, first compound 0.316 µM): 88.5%; viability, T/C (second compound 0.0316 µM, first compound 1 µM): 92.2%; viability, T/C (second compound 0.0316 µM, first compound 3.16 µM): 80.6%; viability, T/C (second compound 0.0316 µM, first compound 10 µM): 66.9%; viability, T/C [6]: 68.9%; viability, T/C [12]: 73.4%; viability, T/C [18]: 47.6%; viability, T/C [20]: 53.7%; viability, T/C [21]: 46.1%; viability, T/C [22]: 43.5%; viability, T/C [23]: 29.9%; viability, T/C [24]: 23.3% |
| O=C(c1cc(Cc2n[nH]c(=O)c3ccccc23)ccc1F)N1CCN(C(=O)C2CC2)CC1 + COc1cc2nc(C)nc(NC(C)c3cc(N)cc(C(F)(F)F)c3)c2cc1OC1CCOC1 | > 10000 nM | > 10000 nM | > 10000 nM | > 10000 nM | 111% | 94.5% | 98.5% | 91.8% | 101% | 94.5% | 103% | 95.1% | 96.1% | 96.4% | 101% | 108% | 101% | 101% | 98.1% | 94.9% | IC50 (second compound 10 µM): > 10000 nM; viability, T/C [6]: 97.2%; viability, T/C [12]: 104%; viability, T/C [18]: 98.2%; viability, T/C [20]: 89.8%; viability, T/C [21]: 89.5%; viability, T/C [22]: 95.2%; viability, T/C [23]: 90.4%; viability, T/C [24]: 87.3%; viability, T/C [25]: 94.9%; viability, T/C [26]: 90%; viability, T/C [27]: 91%; viability, T/C [28]: 82.7%; viability, T/C [29]: 76.2%; viability, T/C [30]: 78% |
| CC(=O)OC12COC1CC(O)C1(C)C(=O)C(O)C3=C(C)C(OC(=O)C(O)C(NC(=O)OC(C)(C)C)c4ccccc4)CC(O)(C(OC(=O)c4ccccc4)C21)C3(C)C (stereo not given) + CNCc1ccccc1-c1csc(C(C)Nc2nc(C)nc3cc(OC)c(OC)cc23)c1 | 176 nM | 126 nM | 184 nM | 22.7 nM | 86.3% | 62.6% | 37.7% | 26.1% | 25.3% | 79.9% | 55.7% | 30.4% | 25.5% | 25.4% | 80.5% | 61.5% | 39.8% | 25.3% | 24% | 38.9% | IC50 (second compound 10 µM): < 10 nM; viability, T/C (second compound 0.1 µM, first compound 0.01 µM): 101%; viability, T/C (second compound 0.316 µM, first compound 0.01 µM): 90%; viability, T/C (second compound 1 µM, first compound 0.01 µM): 81.3%; viability, T/C (second compound 3.16 µM, first compound 0.01 µM): 77%; viability, T/C [20]: 9.76%; viability, T/C [21]: 13.6%; viability, T/C [22]: 0.92%; viability, T/C [23]: 23.3%; viability, T/C (second compound 10 µM, first compound 0.01 µM): 1.07%; viability, T/C [25]: 0.14%; viability, T/C [26]: 1.91%; viability, T/C [27]: 0.55%; viability, T/C [28]: 24.2%; viability, T/C [29]: 0.21% |
